Residues, ends and D or L forms follow the SMILES beside them.

The subject of series [1] is S. epidermidis (ATCC 35984) biofilm. Briefly: Biofilm-formation inhibitory activity, crystal violet staining. The format is cell-based, Staphylococcus epidermidis. To be noted: CV staining, TSB, 10^6 CFU/mL, 24 h, 37°C, 0.98-250 µg/mL. The protocol: The biofilm inhibitory activity of peptide derivatives was assessed by modified crystal violet (CV) staining. Briefly, the pellet of S. epidermidis (ATCC 35984) was collected through centrifugation of bacterial suspensions grown overnight at 2,500 × g for 5 min. Subsequently, the pellet was resuspended and diluted with TSB to a final concentration of 10^6 CFU/mL. Then, 50 µL of these diluted suspensions was transferred to 96-well microplates containing same volume of peptide derivatives in 10 mM phosphate buffer saline (PBS; Caisson Labs, USA), with concentrations ranging from 0.98 to 250 µg/mL. Vancomycin was used as positive control while TSB medium without bacteria was used as negative control. After 24 h of incubation and reaching static growth at 37°C, culture media as well as planktonic cells were removed, then the biofilm in each well was washed thrice with 0.85% NaCl. For CV staining, biofilms were fixed with 95% ethanol and stained with a 0.1% (v/v) CV solution for 15 min. After removal of excess dye, each well was washed thrice with 0.85% NaCl and resuspended in 95% ethanol to dissolve bound dye. Absorbance was determined at 570 nm using a Multiskan SkyHigh microplate reader (Thermo Scientific™, Singapore). All experiments were done in six technical replicates and repeated independently three times. Minimum biofilm inhibitory concentrations at 50% and 90% (MBIC50 and MBIC90) refers to concentrations of the peptide at which the inhibition of biofilm was at least 50% and 90%, respectively.

In series [2] the test system is human lung fibroblast MRC-5 cell lines (ATCC CCL-171). Briefly: MTT cytotoxicity assay. The format is cell-based. To be noted: MRC-5, 250 µg/mL (maximum concentration tested), 24 h. How it is done: The toxicity of peptide BiF2_5K7K against human lung fibroblast MRC-5 cell lines (ATCC CCL-171) was investigated by MTT colorimetric assay. Briefly, MRC-5 cells were cultured in Minimum Essential Medium [MEM; supplemented with 10% heat-inactivated FBS and 1% Penicillin-Streptomycin] in 5% CO2 at 37°C. Following an overnight incubation, MRC-5 cells were diluted to 10,000 cells/well and placed in 96-well microplates. Subsequently, they were exposed to BiF2_5K7K at 0.98 to 250 µg/mL. After incubation for 24 h, MTT solution (0.4 mg/mL) was added to each well and incubated for an additional 3 h under 5% CO2 at 37°C. The supernatant was then removed and 100 µL DMSO added, and absorbance was measured at 570 nm using a microplate reader.
(Tetrazolium assays rely on reduction of a dye to a coloured formazan, in cell work by metabolically active cells.)

The compound `CC[C@H](C)[C@H](NC(=O)[C@H](CCCCN)NC(=O)[C@H](CCCCN)NC(=O)[C@@H](NC(=O)[C@H](CC(C)C)NC(=O)[C@@H](N)Cc1ccccc1)C(C)C)C(=O)N[C@@H](CCCCN)C(=O)N[C@@H](CCCCN)C(=O)N[C@H](C(=O)N[C@@H](CC(C)C)C(=O)N[C@@H](CCCNC(=N)N)C(=O)N[C@@H](CCCNC(=N)N)C(N)=O)[C@@H](C)CC` [BiF2_5K7K] (H-FLVKKIKKILRR-NH2; N-terminus assumed) had an MBIC50 in series [1] (minimum concentration inhibiting biofilm formation more than 50%) of 7.81 µg/mL. In addition, in series [1] (minimum concentration inhibiting biofilm formation more than 90%), the MBIC90 is on record as 31.25 µg/mL. Besides, the cell viability (commonly a per cent measure of how many cells are alive, often set against a control) in series [2] is over 99%.

Source of the values: paper PMC11100219, “Dual-function antimicrobial-antibiofilm peptide hybrid to tackle biofilm-forming Staphylococcus epidermidis” (Annals of Clinical Microbiology and Antimicrobials, 2024).
